Reference: patent publication US5340808A, “Fused pyridazinoquinazolone derivatives as neurotrophic agents” (Warner Lambert Company, priority 1992, dated 1994)

What was measured:
[1] = molecular target: T1, p75 receptor (truncated form, residues 1-222) (Homo sapiens, UniProt P08138); assay: Inhibition of 125I-NGF binding to the NGF p75 receptor; conditions: 2 nM 125I-NGF, 2 hours at room temperature; for inhibition at 10 µM: at 10,000 nM, read-out: Inhibition of 125I-NGF Binding to p 75 (% inh); for IC50: read-out: Inhibition of 125I-NGF Binding to p 75 (IC50)
T1 construct: truncated form (residues 1-222, molecular weight=56 KDa) of the p75 receptor; biotin (chemical label, immobilised on streptavidin); purchased Chiron Corporation, Emeryville, Calif; (also commercially available from Austral Biologicals, Inc., San Diego, Calif.)
T1 sequence (P08138 29-250): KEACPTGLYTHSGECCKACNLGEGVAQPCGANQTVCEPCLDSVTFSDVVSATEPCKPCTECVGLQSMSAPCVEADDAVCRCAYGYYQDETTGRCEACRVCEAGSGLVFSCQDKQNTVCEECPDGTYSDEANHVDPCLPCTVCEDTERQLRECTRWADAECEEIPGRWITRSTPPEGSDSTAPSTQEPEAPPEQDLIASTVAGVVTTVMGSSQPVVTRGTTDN
Description: Binding assays of novel compounds to the NGF p75 receptor are performed using a truncated form (residues 1-222, molecular weight=56 KDa) of the p75 receptor, originally obtained from Chiron Corporation, Emeryville, Calif., but also commercially available from Austral Biologicals, Inc. (San Diego, Calif.), on plastic 96 well microtiter plates (Immulon II Dynatech). The wells are coated with 50 μl/well of 20 μg/ml streptavidin in a […] (DPBS). The plates are then incubated at room temperature for 6 hours. The excess streptavidin is then poured out, the wells are washed with a 0.1% solution of bovine serum albumin (BSA) in DPBS. To each well is then added […] of a DPBS solution containing the truncated p75 receptor, which has previously been reacted with biotin by standard procedures. The plates are then incubated at room temperature for 2 hours, and washed with 0.2% BSA/DPBS. To each well is added 98 μl of 2 nM ^125 I-NGF, followed by 2 μl/well of a concentration of test compound that is 50 times greater than the desired final test concentration. The plates are incubated for 2 hours at room temperature. […]

Alzheimer's disease = conditions: recent clinical findings in humans; cited from earlier work
sensory neuropathies = conditions: cited from earlier work
[2] = test system: basal forebrain cholinergic neurons; conditions: cited from earlier work
[3] = test system: substantia nigra dopaminergic neurons; conditions: cited from earlier work

CC(=O)Nc1ccc2c(=O)n3nc(C(=O)O)ccc3nc2c1 [7 -Acetylamino-10-oxo-10H-pyridazino[6,1-b]quinazoline-2-carboxylic acid]
inhibition at 10 µM [1]: 42%

Cc1ccc2c(=O)n3nc(C(=O)O)ccc3nc2c1 [7-Methyl-10-oxo-10H-pyridazino[6,1-b]quinazoline-2-carboxylic acid]
IC50 [1]: 4900 nM

O=C(Nc1ccc2nc3ccc(C(=O)O)nn3c(=O)c2c1)c1ccccc1 [8-(Benzoylamino)-10-oxo-10H-pyridazino[6,1-b]-quinazoline-2-carboxylic acid]
IC50 [1]: 67 nM

O=C(O)c1ccc2nc3ccc(Cl)cc3c(=O)n2n1 [8-Chloro-10-oxo-10H-pyridazino[6,1-b]quinazoline-2-carboxylic acid]
IC50 [1]: 4000 nM

COc1ccc2nc3ccc(C(=O)O)nn3c(=O)c2c1 [8-Methoxy-10-oxo-10H-pyridazino[6,1-b]quinazoline-2-carboxylic acid]
IC50 [1]: 1500 nM

Cc1ccc2nc3ccc(C(=O)O)nn3c(=O)c2c1 [8-Methyl-10-oxo-10H-pyridazino[6,1-b]quinazoline-2-carboxylic acid]
IC50 [1]: 1800 nM

Cc1ccc(C(=O)Nc2ccc3nc4ccc(C(=O)O)nn4c(=O)c3c2)cc1 [8-[(4-Methylbenzoyl)amino]-10-oxo-10H-pyridazino [6,1-b]quinazoline-2-carboxylic acid]
IC50 [1]: 238 nM

O=C(O)c1ccc2c(=O)n3nc(C(=O)O)ccc3nc2c1 [10-Oxo-10H-pyridazino[6,1-b]quinazoline-2,7-dicarboxylic acid]
inhibition at 10 µM [1]: 46%

O=C(O)c1ccc2nc3ccc(C(=O)O)nn3c(=O)c2c1 [10-Oxo-10H-pyridazino[6,1-b]quinazoline-2,8-dicarboxylic acid]
IC50 [1]: 2190 nM

O=C(O)c1ccc2nc3ccccc3c(=O)n2n1 [10-Oxo-10H-pyridazino[6,1-b]quinazoline-2-carboxylic acid]
inhibition at 10 µM [1]: 39%

O=C(O)c1ccc2nc3cc4ccccc4cc3c(=O)n2n1 [12-Oxo-12H-benzo[g]pyridazino[3,2-b]quinazoline-2-carboxylic acid]
IC50 [1]: 344 to 369 nM

NGF: β-subunit, a dimer consisting of two equivalent monomers of approximately 13,000 dalton molecular weight
usefulness in the treatment of AD (Alzheimer's disease): treatment with NGF is useful in the treatment of AD | development of large-fiber sensory neuropathies from cisplatin, and animal model of diabetes-induced neuropathy (sensory neuropathies; cisplatin, animal model of diabetes-induced neuropathy): efficacious | development of small-fiber sensory neuropathies from taxol (sensory neuropathies; taxol): prevents the development of small-fiber sensory neuropathies | behavioral impairment associated with atrophied or lesioned basal forebrain cholinergic neurons ([2]; animals with atrophied or lesioned basal forebrain cholinergic neurons): reverse the associated behavioral impairment | ability of brain cholinergic neurons to survive a chemical insult ([2]; chemical insult): enhances the ability of brain cholinergic neurons to survive a chemical insult | degeneration of neurons in the medial septal nucleus after lesion of the septo-hippocampal pathway ([2]; into the cerebrospinal fluid via a miniosmotic pump): This neuronal degeneration can be prevented

B1: BDNF: member of the neurotrophins, a family of related neurotrophic peptides (protein, UniProt P23560 19-247, looked up)
Neurotrophic factor BDNF …: APMKEANIRGQGGLAYPGVRTHGTLESVNGPKAGSRGLTSLADTFEHVIEELLDEDQKVRPNEENNKDADLYTSRVMLSSQVPLEPPLLFLLEEYKNYLDAANMSMRVRRHSDPARRGELSVCDSISEWVTAADKKTAVDMSGGTVTVLEKVPVSKGQLKQYFYETKCNPMGYTKEGCRGIDKRHWNSQCRTTQSYVRALTMDSKKRIGWRFIRIDTSCVCTLTIKRGR
neurotrophic effects on substantia nigra dopaminergic neurons [3]: exerts neurotrophic effects on substantia nigra dopaminergic neurons
